The subject of data set [1] is cerebral infarct. Particulars: treatment 3-hours post-ischemia; cited from earlier work.
A short description of data set [2]: Plasma pharmacokinetics of 2,4-DNP, i.v. and oral. In kind it is in vivo, Sprague-Dawley male rats. Here is the method:
All procedures that involved the use of rats were conducted in accordance with the guidelines set forth by the University of Arkansas for Medical Sciences (UAMS) Institutional Animal Care and Use Committee established by the National Institutes of Health's Guide for the Care and Use of Laboratory Animals (1996). Male Sprague-Dawley rats weighing 250-300 grams were housed three per cage with ad libitum access to food and water in the Division of Laboratory Animal Resources, UAMS. Rats were anesthetized with isofluorane (2-5%)/oxygen (1.5-2.0 L/min) and surgically implanted with cannulae in the jugular (i.v. dosing) and femoral (blood sampling) veins. […] Following appropriate evidence of successful recovery from surgery, IV or oral dosing was performed and blood samples (0.15 mL) were collected at 0, 5, 15, 30, 45, 60, 120, 240 and 480 min. Plasma samples were prepared and analysis was run using a LC/MS/MS spectrometry.
2,4-DNP was dissolved in a phosphate-saline buffer solution, pH 7.4 containing 5% DMSO and 20% PEG-400 and filtered through a 0.2-μm filter. For the oral route, rats were gavaged with 5 mg/kg in a total volume of 8 mL/kg from a stock solution containing 0.625/mL of 2,4-DNP. For the i.v. injection, a total volume of 0.8 mL/kg was used at a dose of 1 mg/kg from a stock solution containing 1.25 mg/mL.
Jugular and femoral vein-catheterized Sprague-Dawley male rats (weights 250-300 g) were treated with 2,4-DNP at a single oral dose of 5 mg/kg (n=4) or a single i.v. dose of 1 mg/kg (n=3). For each i.v. and oral experiment, blood samples (0.15 mL) were collected at 0, 5, 15, 30, 45, 60, 120, 240 and 480 min. The withdrawn blood was replaced with heparinized saline (0.15 mL). Blood samples were centrifuged at 10,000 rpm for 10 min at room temperature, and plasma samples were prepared and analysis was run using a sensitive LC/MS/MS spectrometry method (see below).
To isolate the analytes from rat plasma, 50 μL of control or treated plasma fortified with 10 μL of 2,4-DNP-d3 (10 μg/mL) as an internal standard to which 0.3 mL of methanol followed by 0.3 mL of acetonitrile was added. The mixture was vortex-mixed for 30 s and centrifuged for 10 min at 10,000 rpm at room temperature. The supernatant was transferred into 5 mL glass tubes and evaporated to dryness at 37° C. under nitrogen gas. The pellet was reconstituted with 50 μL of acetonitrile, vortex-mixed for 30 sec, followed by sonication for 1 min. Following centrifugation at 1000 rpm for 10 min at room temperature, 5 μL of the supernatant was then injected onto the column, and analytes were quantified by a LC/MS/MS spectrometry.
1—Plasma concentrations of 2,4-DNP after a single i.v. injection of 2,4-DNP of 1 mg/kg or 5 mg/kg oral administration; 2—Plasma concentrations of II-38 and 2,4-DNP-released from II-38 after an i.v. injection 1.6 mg/kg of II-38 eq. to 1 mg/kg of 2,4-DNP or an oral dose of 8, 40 and 80 mg/kg of II-38 eq. to 5, 25 and 50 mg/kg of 2,4-DNP, respectively. The mass spectrometer was an Agilent quadrupole mass spectrometer operated in the multiple reaction monitoring (MRM) mode. 2,4-DNP-d3 was used as an internal standard. 2,4-DNP, II-38 and 2,4-DNP-d3 were separated using an Alltima C18 column, 5 μm, 3.2×150 mm (Grace Discovery Sciences, IL, USA) equipped with a guard column: Alltima C18, 5 μm, 4.6×7.5 mm (Grace Discovery Sciences, IL, USA). The mobile phase consists of water with 0.005% formic acid as solvent A and acetonitrile with 0.005% formic acid as solvent B. For analysis of 2,4-DNP, II-38 and 2,4-DNP-d3 compounds, the separation was achieved using a gradient of 10 to 90% solvent B in 3.5 min, which was maintained at 90% B for the next 3.30 min and then equilibrated back to the initial conditions over 3.20 min. The flow rate was 0.8 mL/min with a column temperature of 30° C. The sample injection volume was 5 μL. […]

The nature of data set [3]: Stability in human plasma. In kind it is in vitro ADME. Particulars: 80% human plasma, 37° C. As to the method: Plasma: Stability in rat and human plasma (37° C.)
HPLC analysis was carried out on an Agilent 1200 Infinity Series Quatpump, equipped with a photodiode array detector and a computer integrating apparatus. An Inertsil ODS-3 column, C18, 5 μm, 4.6×50 mm (GL Science Inc. Japan) protected with a guard column: Alltima C18, 5 μm, 4.6×7.5 mm (Grace Discovery Sciences, IL, USA) was used as the stationary phase. An isocratic method with a mobile phase consisting of water/acetonitrile (70:30) containing 0.05% formic acid in each was used. A flow rate of 0.9 mL/min was used and detection was carried out at a UV wavelength of 250 nm.
Formulation of II-38 in human plasma: to prepare 1 mg/mL of II-38, 2.3 mg of II-38 was formulated in DMSO (5%) and added slowly and gradually to a total volume of 2.185 mL of premixed human plasma (80%+PBS 15%, see Table 6) in a Franz cell diffusion chamber preheated to 37° C. The solution was mixed for a min every half an hour using magnetic stirrer. Samples of 20 μL (20 μg/mL of II-38) were collected at 0, 0.5, 1, 2, 4, 6 and 8 h. Each sample was mixed with acetonitrile QS to 1 mL, vortex-mixed for 30 sec and centrifuged at 10,000 rpm at room temp. A volume of 10 μL of the supernatant was injected into the HPLC spectrometer.

[4] abbreviates: 2,4-DNP single oral dose 5 mg/kg, n = 4, 5 mg/kg.
[5] abbreviates: 2,4-DNP single oral dose 5 mg/kg, n = 4, listed as DNP, 5 mg/kg.

Where two headings read alike, the source gives them in different places.

For `O=[N+]([O-])c1ccc(O)c([N+](=O)[O-])c1` [2,4-DNP, 2,4-dinitrophenol], the “reduction of cerebral infarct volume” value in data set [1] is recorded as 40%. The AUC in data set [2] (setting [4]) is 13288.0 ± 1634.1 µg·min/mL; in data set [2] (setting [5]), 13288 µg·min/mL; in data set [2] (male, Sprague-Dawley, rat, plasma, iv, 2,4-DNP single i.v. dose 1 mg/kg, n = 3, read-out: AUC (converted)), 1350 µg·min/mL; in data set [2] (male, Sprague-Dawley, rat, plasma, 2,4-DNP single oral dose 5 mg/kg, n = 4, read-out: AUC (converted)), 13300 µg·min/mL. Besides, the values for the t1/2 in data set [2] (setting [4]) and in data set [2] (setting [5]) were 136.3 ± 10.9 min and 136 min, respectively. The Cmax in data set [2] (setting [5]) is 50 µg/mL; in data set [2] (male, Sprague-Dawley, rat, plasma, iv, 1 mg/kg, 2,4-DNP single i.v. dose 1 mg/kg, n = 3, read-out: Cmax), 11.5 ± 6.2 µg/mL; in data set [2] (male, Sprague-Dawley, rat, plasma, po, 5 mg/kg, 2,4-DNP single oral dose 5 mg/kg, n = 4, read-out: Cmax), 50.1 ± 7.4 µg/mL. Moreover, the time of peak concentration (Tmax) in data set [2] (setting [5]) was 38 min; in data set [2] (male, Sprague-Dawley, rat, plasma, po, 5 mg/kg, 2,4-DNP single oral dose 5 mg/kg, n = 4, read-out: tmax (converted)), 37.5 min. Also, the half-life was determined as 90 ± 9.9 min in data set [2] (male, Sprague-Dawley, rat, plasma, iv, 1 mg/kg, 2,4-DNP single i.v. dose 1 mg/kg, n = 3) and 136 ± 10.9 min in data set [2] (male, Sprague-Dawley, rat, plasma, po, 5 mg/kg, 2,4-DNP single oral dose 5 mg/kg, n = 4). The clearance in data set [2] (male, Sprague-Dawley, rat, plasma, iv, 2,4-DNP single i.v. dose 1 mg/kg, n = 3) turned out to be 1.2 ± 0.6 mL/min/kg. Also, the Vd in data set [2] (male, Sprague-Dawley, rat, plasma, iv, 2,4-DNP single i.v. dose 1 mg/kg, n = 3, read-out: Vss) was 0.161 ± 0.135 L/kg. In data set [2] (male, Sprague-Dawley, rat, plasma, 2,4-DNP single oral dose 5 mg/kg, n = 4), this molecule returned a bioavailability of 65.8 ± 11.4%.

Take `O=C(Oc1ccc([N+](=O)[O-])cc1[N+](=O)[O-])N1CCOCC1` [II-38, 2,4-Dinitrophenyl morpholine-4-carboxylate]: the “hydrolysis in human plasma” value in data set [3] is recorded as “cleaved in the plasma to produce 2,4-DNP at a slow rate”.

Source of the values: patent US11406642B2, “DNP and DNP prodrug treatment of neuromuscular, neurodegenerative, autoimmune, developmental, traumatic brain injury, concussion, dry eye disease, hearing loss and/or metabolic diseases” (priority 2016, dated 2022).
